Laboratory results published in patent publication US10344060B2 (priority 2013, dated 2019).
Where “and” joins values, the source holds several entries; their conditions need not be identical. Identical values can stand only once. Like-named read-outs stand apart in the source and are kept apart here.

Columns and labels:
Assay in all cases: cell-based
mNav1.7 = mNav1.7 (Mus musculus, UniProt Q62205); conditions: for IC50: PatchXpress, tonic block, mouse Nav1.7, read-out: PX mNav1.7 Tonic IC50; for mNav1.7/hNav1.7: ratio of PX tonic IC50, mouse Nav1.7 over human Nav1.7
Chain of mNav1.7 (Q62205 whole entry): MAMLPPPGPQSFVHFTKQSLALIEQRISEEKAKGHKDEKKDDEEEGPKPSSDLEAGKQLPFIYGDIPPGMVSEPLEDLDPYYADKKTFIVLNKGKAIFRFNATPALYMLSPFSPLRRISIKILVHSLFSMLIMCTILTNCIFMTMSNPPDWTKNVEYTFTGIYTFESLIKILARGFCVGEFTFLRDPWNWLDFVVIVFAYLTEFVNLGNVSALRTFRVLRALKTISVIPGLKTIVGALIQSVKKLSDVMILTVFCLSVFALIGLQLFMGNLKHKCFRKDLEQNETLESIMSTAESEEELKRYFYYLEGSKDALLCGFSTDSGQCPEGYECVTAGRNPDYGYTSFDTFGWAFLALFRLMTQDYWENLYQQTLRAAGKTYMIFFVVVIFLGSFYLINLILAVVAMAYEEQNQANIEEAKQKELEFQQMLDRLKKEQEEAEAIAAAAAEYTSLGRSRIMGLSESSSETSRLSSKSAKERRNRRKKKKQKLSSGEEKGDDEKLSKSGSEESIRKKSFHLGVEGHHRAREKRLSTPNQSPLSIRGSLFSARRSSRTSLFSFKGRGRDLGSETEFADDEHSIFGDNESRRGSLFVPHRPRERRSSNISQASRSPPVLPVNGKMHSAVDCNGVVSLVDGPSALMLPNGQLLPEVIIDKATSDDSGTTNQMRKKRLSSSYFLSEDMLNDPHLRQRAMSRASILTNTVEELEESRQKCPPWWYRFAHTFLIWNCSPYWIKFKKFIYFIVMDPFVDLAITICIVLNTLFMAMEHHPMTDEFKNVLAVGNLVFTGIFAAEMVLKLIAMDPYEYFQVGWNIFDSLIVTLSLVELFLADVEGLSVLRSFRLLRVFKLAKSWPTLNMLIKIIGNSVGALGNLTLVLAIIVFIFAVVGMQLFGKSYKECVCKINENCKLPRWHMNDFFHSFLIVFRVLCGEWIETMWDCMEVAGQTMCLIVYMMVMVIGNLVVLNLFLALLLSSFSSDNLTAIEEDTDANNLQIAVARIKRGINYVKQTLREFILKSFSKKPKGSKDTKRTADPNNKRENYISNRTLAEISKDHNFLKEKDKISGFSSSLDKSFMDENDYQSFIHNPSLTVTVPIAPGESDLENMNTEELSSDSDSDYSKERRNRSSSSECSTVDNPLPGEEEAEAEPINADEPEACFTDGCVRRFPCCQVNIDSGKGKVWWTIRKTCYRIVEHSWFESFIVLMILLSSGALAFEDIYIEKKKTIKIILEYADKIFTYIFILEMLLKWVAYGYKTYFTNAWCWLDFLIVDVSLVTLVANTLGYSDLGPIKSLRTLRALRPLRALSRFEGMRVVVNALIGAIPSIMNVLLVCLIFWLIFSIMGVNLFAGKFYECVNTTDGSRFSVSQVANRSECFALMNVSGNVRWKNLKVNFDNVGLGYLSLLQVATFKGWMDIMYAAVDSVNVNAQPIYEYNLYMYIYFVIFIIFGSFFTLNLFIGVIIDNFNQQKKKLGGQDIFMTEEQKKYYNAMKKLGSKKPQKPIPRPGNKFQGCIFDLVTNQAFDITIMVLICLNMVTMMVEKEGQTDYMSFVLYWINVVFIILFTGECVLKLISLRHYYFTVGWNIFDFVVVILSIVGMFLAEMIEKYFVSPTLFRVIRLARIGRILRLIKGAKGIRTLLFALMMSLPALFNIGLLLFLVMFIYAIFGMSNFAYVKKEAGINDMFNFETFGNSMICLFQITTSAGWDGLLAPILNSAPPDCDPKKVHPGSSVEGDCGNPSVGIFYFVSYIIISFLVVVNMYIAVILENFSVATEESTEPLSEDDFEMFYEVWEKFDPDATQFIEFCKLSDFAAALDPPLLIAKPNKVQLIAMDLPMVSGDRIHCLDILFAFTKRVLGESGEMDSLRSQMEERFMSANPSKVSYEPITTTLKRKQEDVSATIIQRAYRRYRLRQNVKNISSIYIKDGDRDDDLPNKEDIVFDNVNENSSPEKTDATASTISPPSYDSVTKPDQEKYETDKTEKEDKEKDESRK

rNav1.7 = rNav1.7 (Rattus norvegicus, UniProt O08562); conditions: for IC50: PatchXpress, tonic block, rat Nav1.7, read-out: PX rNav1.7 Tonic IC50; for rNav1.7/hNav1.7: ratio of PX tonic IC50, rat Nav1.7 over human Nav1.7
Chain of rNav1.7 (O08562 whole entry): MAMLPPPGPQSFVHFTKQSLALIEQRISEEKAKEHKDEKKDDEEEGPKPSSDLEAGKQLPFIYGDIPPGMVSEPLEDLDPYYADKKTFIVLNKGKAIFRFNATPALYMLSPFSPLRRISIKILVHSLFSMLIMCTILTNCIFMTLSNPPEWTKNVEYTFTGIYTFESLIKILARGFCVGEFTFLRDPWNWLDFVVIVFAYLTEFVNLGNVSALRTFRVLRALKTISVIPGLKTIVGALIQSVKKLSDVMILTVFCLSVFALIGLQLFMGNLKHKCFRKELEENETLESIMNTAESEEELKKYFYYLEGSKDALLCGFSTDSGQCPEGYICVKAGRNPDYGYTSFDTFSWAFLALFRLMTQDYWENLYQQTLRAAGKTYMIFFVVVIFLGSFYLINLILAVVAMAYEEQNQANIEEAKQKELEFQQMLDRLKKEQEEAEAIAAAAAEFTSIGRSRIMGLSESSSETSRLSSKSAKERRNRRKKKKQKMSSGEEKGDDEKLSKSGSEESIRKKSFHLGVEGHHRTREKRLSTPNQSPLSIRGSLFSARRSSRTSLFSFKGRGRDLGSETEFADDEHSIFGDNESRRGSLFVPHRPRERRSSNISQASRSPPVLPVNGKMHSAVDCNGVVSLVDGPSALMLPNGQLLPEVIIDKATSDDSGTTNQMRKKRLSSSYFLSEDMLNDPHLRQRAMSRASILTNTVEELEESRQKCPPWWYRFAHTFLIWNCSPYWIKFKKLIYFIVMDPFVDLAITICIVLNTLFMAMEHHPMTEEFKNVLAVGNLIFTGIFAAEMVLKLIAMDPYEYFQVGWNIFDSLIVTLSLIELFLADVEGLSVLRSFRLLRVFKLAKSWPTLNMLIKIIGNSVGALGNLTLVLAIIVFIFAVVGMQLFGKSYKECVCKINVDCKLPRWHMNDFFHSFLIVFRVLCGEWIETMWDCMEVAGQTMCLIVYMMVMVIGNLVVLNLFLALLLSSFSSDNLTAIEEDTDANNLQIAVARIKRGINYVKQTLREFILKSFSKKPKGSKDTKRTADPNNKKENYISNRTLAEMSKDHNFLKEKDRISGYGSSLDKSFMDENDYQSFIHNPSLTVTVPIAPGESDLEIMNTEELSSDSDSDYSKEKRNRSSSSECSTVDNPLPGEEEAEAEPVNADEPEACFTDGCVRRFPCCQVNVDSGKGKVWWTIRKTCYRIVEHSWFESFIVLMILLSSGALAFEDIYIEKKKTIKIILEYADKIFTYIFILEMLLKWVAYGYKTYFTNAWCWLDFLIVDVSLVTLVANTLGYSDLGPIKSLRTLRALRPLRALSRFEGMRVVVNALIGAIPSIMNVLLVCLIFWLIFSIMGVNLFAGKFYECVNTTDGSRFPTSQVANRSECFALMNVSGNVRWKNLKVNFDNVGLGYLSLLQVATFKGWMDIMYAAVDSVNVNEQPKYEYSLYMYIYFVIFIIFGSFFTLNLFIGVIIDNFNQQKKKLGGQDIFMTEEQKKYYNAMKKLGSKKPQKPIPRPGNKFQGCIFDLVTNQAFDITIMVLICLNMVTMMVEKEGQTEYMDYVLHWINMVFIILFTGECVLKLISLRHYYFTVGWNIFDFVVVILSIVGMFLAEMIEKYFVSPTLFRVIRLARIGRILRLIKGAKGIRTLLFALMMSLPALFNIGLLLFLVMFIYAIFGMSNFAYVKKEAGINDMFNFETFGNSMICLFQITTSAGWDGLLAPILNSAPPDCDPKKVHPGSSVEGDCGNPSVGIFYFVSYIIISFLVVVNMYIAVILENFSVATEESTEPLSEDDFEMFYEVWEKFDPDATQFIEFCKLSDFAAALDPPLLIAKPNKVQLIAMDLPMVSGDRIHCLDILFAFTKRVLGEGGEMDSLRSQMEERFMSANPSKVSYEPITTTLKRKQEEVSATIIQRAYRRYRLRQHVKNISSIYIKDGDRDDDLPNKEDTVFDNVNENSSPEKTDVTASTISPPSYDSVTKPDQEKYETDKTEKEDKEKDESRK

hNav1.7 [1] = molecular target: T1, hNav1.7 (Homo sapiens, UniProt Q15858); type: cell-based; conditions: read-out: PX hNav1.7 Tonic IC50
hNav1.5 [2] = molecular target: T2, hNav1.5 (Homo sapiens, UniProt Q14524); conditions: for Nav1.5/Nav1.7: Table 13, ratio of PX tonic IC50 values; for IC50: read-out: PX hNav1.5 Tonic IC50
hNav1.4 [3] = molecular target: T3, hNav1.4 (Homo sapiens, UniProt P35499); type: cell-based; conditions: for Nav1.4/Nav1.7: Table 13, ratio of PX tonic IC50 values; for IC50: read-out: PX hNav1.4 Tonic IC50
hNav1.5 [4] = molecular target: T2, hNav1.5; conditions: IonWorks Quattro; Table 9; read-out: IC50 (μM) Nav1.5
hNav1.4 [5] = molecular target: T3, hNav1.4; type: cell-based; conditions: Table 9; for IC50: IonWorks Quattro, read-out: IC50 (μM) Nav1.4; for Nav1.4/Nav1.7: ratio of IonWorks Quattro IC50 values
hNav1.7 [6] = molecular target: T1, hNav1.7; conditions: IonWorks Quattro; […]; read-out: IC50 (μM) Nav1.7
hNav1.3 = hNav1.3 (Homo sapiens, UniProt Q9NY46); conditions: IonWorks Quattro; Table 9; read-out: IC50 (μM) Nav1.3
[7] = PatchXpress, tonic block, human Nav1.7

| SMILES | IC50 (mNav1.7) [nM] | mNav1.7/hNav1.7 (mNav1.7) | IC50 (rNav1.7) [nM] | rNav1.7/hNav1.7 (rNav1.7) | IC50 (hNav1.7 [1]; [7]) [nM] | Nav1.5/Nav1.7 (hNav1.5 [2]) | IC50 (hNav1.5 [2]) [nM] | IC50 (hNav1.7 [1]) [nM] | Nav1.4/Nav1.7 (hNav1.4 [3]) | IC50 (hNav1.4 [3]) [nM] | IC50 (hNav1.5 [4]) [µM] | IC50 (hNav1.4 [5]) | Nav1.4/Nav1.7 (hNav1.4 [5]) | IC50 (hNav1.7 [6]) [µM] | IC50 (hNav1.3) |
| --- | --- | --- | --- | --- | --- | --- | --- | --- | --- | --- | --- | --- | --- | --- | --- |
| C#CC[C@H](NC(=O)[C@@H](N)CCC(=O)O)C(=O)N[C@H]1CSSC[C@@H]2NC(=O)[C@@H]3CSSC[C@@H](C(=O)N[C@@H](CCCNC(=N)N)C(=O)N[C@@H](CCCCN)C(=O)N[C@@H](CCC(=O)O)C(=O)N[C@H](C(N)=O)[C@@H](C)CC)NC(=O)[C@H](Cc4c[nH]c5ccccc45)NC(=O)[C@H](CC(C)C)NC(=O)[C@H](CCCCN)NC(=O)[C@H](CSSC[C@H](NC(=O)[C@H]([C@@H](C)O)NC(=O)[C@H](Cc4c[nH]c5ccccc45)NC(=O)[C@H](CCCC)NC(=O)[C@H](Cc4c[nH]c5ccccc45)NC(=O)[C@H](CCCCN)NC(=O)[C@H](CCC(N)=O)NC1=O)C(=O)N[C@@H](CC(=O)O)C(=O)N[C@@H](CO)C(=O)N[C@@H](CCCCN)C(=O)N[C@@H](CCCNC(=N)N)C(=O)N[C@@H](CCC(=O)O)C(=O)N3)NC(=O)[C@H](CCCNC(=N)N)NC(=O)[C@H](CC(C)C)NC(=O)CNC(=O)[C@H](CCC(=O)O)NC2=O [Glu-[Pra1; Nle6; Glu14, 28]JzTx-V(1-29)] | 16.1 | 28.63 | 3.34 | 5.94 |  |  |  |  |  |  |  |  |  |  |  |
| C#CC[C@H](N)C(=O)N[C@@H](Cc1ccc(O)cc1)C(=O)N[C@H]1CSSC[C@@H]2NC(=O)[C@@H]3CSSC[C@@H](C(=O)N[C@@H](CCCNC(=N)N)C(=O)N[C@@H](CCCCN)C(=O)N[C@@H](CCC(=O)O)C(=O)N[C@@H](Cc4ccccc4)C(N)=O)NC(=O)[C@H](Cc4c[nH]c5ccccc45)NC(=O)[C@H](CC(C)C)NC(=O)[C@H](CCCCN)NC(=O)[C@H](CSSC[C@H](NC(=O)[C@H]([C@@H](C)O)NC(=O)[C@H](Cc4c[nH]c5ccccc45)NC(=O)[C@H](CCCC)NC(=O)[C@H](Cc4c[nH]c5ccccc45)NC(=O)[C@H](CCCCN)NC(=O)[C@H](CCC(N)=O)NC1=O)C(=O)N[C@@H](CC(=O)O)C(=O)N[C@@H](CO)C(=O)N[C@@H](CCCCN)C(=O)N[C@@H](CCCNC(=N)N)C(=O)N[C@@H](C)C(=O)N3)NC(=O)[C@H](CCCNC(=N)N)NC(=O)[C@H](CC(C)C)NC(=O)CNC(=O)[C@H](CCC(=O)O)NC2=O [Pra-[Nle6; Glu28; Phe29]JzTx-V(1-29)] | 3.45 | 8.90 | 0.296 | 0.76 |  |  |  |  |  |  |  |  |  |  |  |
| CCCC[C@@H]1NC(=O)[C@H](Cc2c[nH]c3ccccc23)NC(=O)[C@H](CCCCN)NC(=O)[C@H](CCC(N)=O)NC(=O)[C@@H](NC(=O)[C@H](Cc2ccc(O)cc2)NC(=O)[C@@H](N)Cc2c[nH]c3ccccc23)CSSC[C@@H]2NC(=O)[C@@H]3CSSC[C@@H](C(=O)N[C@@H](CCCNC(=N)N)C(=O)N[C@@H](CCCCN)C(=O)N[C@H](C(=O)N[C@H](C(N)=O)[C@@H](C)CC)[C@@H](C)CC)NC(=O)[C@H](Cc4c[nH]c5ccccc45)NC(=O)[C@H](CC(C)C)NC(=O)[C@H](CCCCN)NC(=O)[C@H](CSSC[C@H](NC(=O)[C@H]([C@@H](C)O)NC(=O)[C@H](Cc4c[nH]c5ccccc45)NC1=O)C(=O)N[C@@H](CC(=O)O)C(=O)N[C@@H](CO)C(=O)N[C@@H](CCCCN)C(=O)N[C@@H](CCCNC(=N)N)C(=O)N[C@@H](C)C(=O)N3)NC(=O)[C@H](CCCNC(=N)N)NC(=O)[C@H](CC(C)C)NC(=O)CNC(=O)[C@H](CCC(=O)O)NC2=O [Trp-[Nle6]JzTx-V(1-29)] | 1.34 | 4.07 |  |  | 0.33 |  |  |  |  |  |  |  |  |  |  |
| CCCC[C@@H]1NC(=O)[C@H](Cc2c[nH]c3ccccc23)NC(=O)[C@H](CCCCN)NC(=O)[C@H](CCC(N)=O)NC(=O)[C@@H](NC(=O)[C@H](Cc2ccc(O)cc2)NC(=O)[C@H](N)CC(C)C)CSSC[C@@H]2NC(=O)[C@@H]3CSSC[C@@H](C(=O)N[C@@H](CCCNC(=N)N)C(=O)N[C@@H](CCCCN)C(=O)N[C@H](C(=O)N[C@H](C(N)=O)[C@@H](C)CC)[C@@H](C)CC)NC(=O)[C@H](Cc4c[nH]c5ccccc45)NC(=O)[C@H](CC(C)C)NC(=O)[C@H](CCCCN)NC(=O)[C@H](CSSC[C@H](NC(=O)[C@H]([C@@H](C)O)NC(=O)[C@H](Cc4c[nH]c5ccccc45)NC1=O)C(=O)N[C@@H](CC(=O)O)C(=O)N[C@@H](CO)C(=O)N[C@@H](CCCCN)C(=O)N[C@@H](CCCNC(=N)N)C(=O)N[C@@H](C)C(=O)N3)NC(=O)[C@H](CCCNC(=N)N)NC(=O)[C@H](CC(C)C)NC(=O)CNC(=O)[C@H](CCC(=O)O)NC2=O [D-Leu-[Nle6]JzTx-V(1-29)] | 12.6 | 84.00 |  |  | 0.15 |  |  |  |  |  |  |  |  |  |  |
| CCCC[C@@H]1NC(=O)[C@H](Cc2c[nH]c3ccccc23)NC(=O)[C@H](CCCCN)NC(=O)[C@H](CCC(N)=O)NC(=O)[C@@H](NC(=O)[C@H](Cc2ccc(O)cc2)NC(=O)[C@@H](N)Cc2cn(CCCOCCOCCOCCOCCOCCOCCOCCOCCOCCOCCN)nn2)CSSC[C@@H]2NC(=O)[C@@H]3CSSC[C@@H](C(=O)N[C@@H](CCCNC(=N)N)C(=O)N[C@@H](CCCCN)C(=O)N[C@H](C(=O)N[C@H](C(N)=O)[C@@H](C)CC)[C@@H](C)CC)NC(=O)[C@H](Cc4c[nH]c5ccccc45)NC(=O)[C@H](CC(C)C)NC(=O)[C@H](CCCCN)NC(=O)[C@H](CSSC[C@H](NC(=O)[C@H]([C@@H](C)O)NC(=O)[C@H](Cc4c[nH]c5ccccc45)NC1=O)C(=O)N[C@@H](CC(=O)O)C(=O)N[C@@H](CO)C(=O)N[C@@H](CCCCN)C(=O)N[C@@H](CCCNC(=N)N)C(=O)N[C@@H](C)C(=O)N3)NC(=O)[C@H](CCCNC(=N)N)NC(=O)[C@H](CC(C)C)NC(=O)CNC(=O)[C@H](CCC(=O)O)NC2=O [compound 247] |  |  |  |  |  | 629 | 3770 | 6 | 1 | 8 | 4.3 | 0.15 µM | 2 | 0.07 | 0.13 µM |
| CCCC[C@@H]1NC(=O)[C@H](Cc2c[nH]c3ccccc23)NC(=O)[C@H](CCCCN)NC(=O)[C@H](CCC(N)=O)NC(=O)[C@@H](NC(=O)[C@@H](N)Cc2ccc(O)cc2)CSSC[C@@H]2NC(=O)[C@@H]3CSSC[C@@H](C(=O)N[C@@H](CCCNC(=N)N)C(=O)N[C@@H](CCCCN)C(=O)N[C@H](C(=O)N[C@H](C(N)=O)[C@@H](C)CC)[C@@H](C)CC)NC(=O)[C@H](Cc4c[nH]c5ccccc45)NC(=O)[C@H](CC(C)C)NC(=O)[C@H](CCCCN)NC(=O)[C@H](CSSC[C@H](NC(=O)[C@H]([C@@H](C)O)NC(=O)[C@H](Cc4c[nH]c5ccccc45)NC1=O)C(=O)N[C@@H](CC(=O)O)C(=O)N[C@@H](Cc1cn(CCCOCCOCCOCCOCCOCCOCCOCCOCCOCCOCCN)nn1)C(=O)N[C@@H](CCCCN)C(=O)N[C@@H](CCCNC(=N)N)C(=O)N[C@@H](C)C(=O)N3)NC(=O)[C@H](CCCNC(=N)N)NC(=O)[C@H](CC(C)C)NC(=O)CNC(=O)[C@H](CCC(=O)O)NC2=O [compound 256] |  |  |  |  |  | 200 | 1860 | 9.3 | 3 | 27 | > 5 | 0.4 µM and 0.5 µM | 4 |  | 0.2 µM and 0.4 µM |
| CCCC[C@@H]1NC(=O)[C@H](Cc2c[nH]c3ccccc23)NC(=O)[C@H](CCCCN)NC(=O)[C@H](CCC(N)=O)NC(=O)[C@@H](NC(=O)[C@H](Cc2ccc(O)cc2)NC(=O)[C@@H](N)CC#N)CSSC[C@@H]2NC(=O)[C@@H]3CSSC[C@@H](C(=O)N[C@@H](CCCNC(=N)N)C(=O)N[C@@H](CCCCN)C(=O)N[C@H](C(=O)N[C@H](C(N)=O)[C@@H](C)CC)[C@@H](C)CC)NC(=O)[C@H](Cc4c[nH]c5ccccc45)NC(=O)[C@H](CC(C)C)NC(=O)[C@H](CCCCN)NC(=O)[C@H](CSSC[C@H](NC(=O)[C@H]([C@@H](C)O)NC(=O)[C@H](Cc4c[nH]c5ccccc45)NC1=O)C(=O)N[C@@H](CC(=O)O)C(=O)N[C@@H](CO)C(=O)N[C@@H](CCCCN)C(=O)N[C@@H](CCCNC(=N)N)C(=O)N[C@@H](C)C(=O)N3)NC(=O)[C@H](CCCNC(=N)N)NC(=O)[C@H](CC(C)C)NC(=O)CNC(=O)[C@H](CCC(=O)O)NC2=O [CyA-[Nle6]JzTx-V(1-29)] | 0.957 | 3.09 |  |  | 0.31 |  |  |  |  |  |  |  |  |  |  |
| CCCC[C@@H]1NC(=O)[C@H](Cc2c[nH]c3ccccc23)NC(=O)[C@H](CCCCN)NC(=O)[C@H](CCC(N)=O)NC(=O)[C@@H](NC(=O)[C@@H](N)Cc2cn(CCCOCCOCCOCCOCCOCCOCCOCCOCCOCCOCCN)nn2)CSSC[C@@H]2NC(=O)[C@@H]3CSSC[C@@H](C(=O)N[C@@H](CCCNC(=N)N)C(=O)N[C@@H](CCCCN)C(=O)N[C@H](C(=O)N[C@H](C(N)=O)[C@@H](C)CC)[C@@H](C)CC)NC(=O)[C@H](Cc4c[nH]c5ccccc45)NC(=O)[C@H](CC(C)C)NC(=O)[C@H](CCCCN)NC(=O)[C@H](CSSC[C@H](NC(=O)[C@H]([C@@H](C)O)NC(=O)[C@H](Cc4c[nH]c5ccccc45)NC1=O)C(=O)N[C@@H](CC(=O)O)C(=O)N[C@@H](CO)C(=O)N[C@@H](CCCCN)C(=O)N[C@@H](CCCNC(=N)N)C(=O)N[C@@H](C)C(=O)N3)NC(=O)[C@H](CCCNC(=N)N)NC(=O)[C@H](CC(C)C)NC(=O)CNC(=O)[C@H](CCC(=O)O)NC2=O [compound 248] |  |  |  |  |  | 946 | 950 | 1 | 15 | 15 | > 7 | 0.39 µM and 0.45 µM | 4 and 3 |  | 0.16 µM and 0.13 µM |
